This is an account of results in US6218430A, “Vitamin D3 mimics” (Ligand Pharmaceuticals Incorporated, priority 1998, dated 2001).

Read-outs that look alike come from different tables or passages of the source.

For orientation: IC50 means the concentration needed to halve the response being measured. Low values mean greater potency, high ones weaker potency. As usually defined, the EC50 is the concentration at which the effect is half-maximal. In general, Ki refers to the dissociation constant of the complex between target and ligand, obtained from inhibition or displacement.

In one data set the target is serum DBP. Nature of the data set: Serum DBP binding, rat or human serum, species not given. Particulars: rat (r) or human (h) serum DBP, not marked (r)/(h); competition with [3H]-25(OH)D3. As for the experimental part: Serum DBP-binding. DPB competition binding assays were performed by a literature method (Dusso et al. 1991). The source of DBP was either human serum (Scantibodies) or rat serum (Gibco-BRL) diluted 1:10,000 in sodium phosphate buffer (pH 7.4). Sera were incubated for 2 h at 4° C. with 2 nM [^3 H]-25(OH)D3 (Amersham) with and withoun unlabeled 25(OH)D3 or 1,25(OH)2D3 (0.01 nM-1 μM), or unlabeled vitamin D mimic compounds (10 nM-10 μM). Bound ligand was separated from unbound ligand with Dextran-coated charcoal in gelatin-phosphate buffer.

The test system of data set [1] is LNCaP prostate cancer cells. Nature of the data set: Prostate cancer cell growth inhibition (BrdU). Type of data set: cell-based. Particulars: Homo sapiens, 96 h, BrdU incorporation, 4-day assay. As for the experimental part: (§1) Cancer cell growth inhibition and analysis. SK-BR-3 human breast cancer cells (ATCC) and LNCaP human prostate cancer cells (ATCC) were plated in 96-well, flat-bottomed microtiter plates (CoStar) with 50 μL serum-containing media/well. […] Cell plating numbers (cells/well) were as follows: SK-BR-3, 3000 (3-day assays); LNCAP, 1000 (4-day assays). Cell plating number was determined by growth rate of each cell line and duration of the assay. […] Cells were allowed to adhere for 24 h prior to compound addition as follows:
(§2) Ten-fold serial dilutions were performed with changing of pipette tips between each dilution. Diluted compounds were then added to the cells (50 μL/well) to final concentrations of 1×10^-5 -1×10^-11 M (1% ethanol) in triplicate. […] BrdU (5-bromo-2'-deoxyuridine) incorporation was analyzed as a measure of DNA replication (Cell Proliferation ELISA kit, Boehringer) and absorbance was measured at 450 nm.
(§3) One row of wells contained media only and these absorbance values were averaged as background and then subtracted from absorbance values from each individual well containing cells. The average values were then determined for each triplicate and plotted vs ligand concentration. The average vehicle (1% ethanol) value was determined, less the background average. […] Potency (EC50) was determined as the concentration of compound that elicited half-maximal response.
(Dividing cells build labelled thymidine or BrdU into new DNA.)

The subject of data set [2] is SK-BR-3 breast cancer cells. Nature of the data set: Breast cancer cell growth inhibition (BrdU). Type of data set: cell-based. Particulars: Homo sapiens, SK-BR-3, 72 h, BrdU incorporation, 3-day assay. As for the experimental part: as §1, §2, §3
Data set [3] relates to Normal human epidermal keratinocytes (NHEK). Kind of data set: Keratinocyte growth inhibition (BrdU). Particulars: 96 h, BrdU incorporation, day 4. Type of data set: cell-based. As for the experimental part:
as §2, §3
Keratinocyte growth inhibition. Normal human epidermal keratinocytes (NHEK) were grown according to vendor specifications (Clonetics, San Diego). BrdU assays were performed as above except that cells were plated at 200 cells per well (96-well plates) and fresh media with ligands were added on day 0 and day 2; BrdU assays were run on day 4.

The test system of the next data set is HL60 cells. Kind of data set: Leukemic cell differentiation (NBT and CD14). Type of data set: cell-based. Particulars: Homo sapiens, HL-60, 120 h; NBT and CD14 assays; differentiation into macrophages/monocytes; 5 days. As for the experimental part:
Leukemic cell differentiation. […] Ligands were added in ethanol vehicle (1%) at various concentrations for 5 days without changing the media. On the fifth day, cells were harvested and assayed for markers of differentiation. […] Cells that bioreduce the dye turn blue-black and represent differentiated cells, and are counted. Undifferentiated cells are clear and are also counted; percent differentiated cells are then determined from the two numbers.

Data set [4] addresses T1, human VDR (Homo sapiens, UniProt P11473).
T1 sequence (P11473 1-427): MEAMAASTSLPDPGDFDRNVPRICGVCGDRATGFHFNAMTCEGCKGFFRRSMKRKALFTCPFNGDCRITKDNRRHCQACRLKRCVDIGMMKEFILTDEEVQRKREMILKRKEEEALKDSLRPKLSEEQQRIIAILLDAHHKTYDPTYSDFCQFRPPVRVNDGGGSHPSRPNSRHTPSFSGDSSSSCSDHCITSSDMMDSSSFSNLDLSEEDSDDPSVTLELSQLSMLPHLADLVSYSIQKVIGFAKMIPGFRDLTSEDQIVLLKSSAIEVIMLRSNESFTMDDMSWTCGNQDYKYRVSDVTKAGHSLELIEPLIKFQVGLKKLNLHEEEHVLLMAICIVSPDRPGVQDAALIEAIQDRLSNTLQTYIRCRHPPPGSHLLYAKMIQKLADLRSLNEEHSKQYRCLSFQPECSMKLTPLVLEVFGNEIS
Kind of data set: biochemical.
Experimental: VDR binding. […] Cell extracts from yeast transformants were prepared and full length VDR expression was confirmed by Western blotting. […] Binding buffer contained 10 mM Tris,pH 7.5, 1 mM DTT, and 0.4 M KCl; wash buffer contained 10 mM Tris, 100 mM KCl, and 10 mM CHAPS detergent.

For data set [5], the target named is T1, human VDR. Nature of the data set: Cotransactivation (CTF) in Hep G2 cells, VDRE-luciferase reporter. On the set-up: expressed in transfected cells; host or cells: Hep G2 (human hepatoma, ATCC). Type of data set: cell-based. The method, then:
Cotransactivation properties. […] Reporter and receptor containing vectors were transfected along with carrier DNA and β-galactosidase internal control plasmid as previously described except that Hep G2 cells were used (Id). Briefly, transfections were performed in triplicate in 96-well gelatin-coated plates with a total of 20 μg/mL DNA (0.5 μg receptor expression vector, 5 μg reported plasmid, 5 μg β-galactosidase plasmid, and pGEM carrier DNA to 20 μg) of calcium phosphate-HEPES transfection solution. […] Luciferase values were normalized with β-galactosidase values to control for variable transfection efficiencies.

The nature of data set [6]: In vivo calcium potential: serum calcium (colorimetric). On the set-up: species or system mouse (Balb/c mice). Particulars: oral gavage. The method, then: (§4) In vivo gene regulation and calcium potential. Balb/c mice (male 6-8 weeks old, ~20 g) were fed a vitamin D deficient, calcium replete diet (Purina Mills) for 7-14 days prior to receiving treatment with compounds. Animals were housed under normal lighting. Compounds were administered in sesame oil vehicle with 4% ethanol by oral gavage (0.1 mL dose volume). […] On the final day of dosing, 4-6 h after the final dose, animals were euthanized, the kidneys removed and blood collected. Serum was prepared from the blood and calcium determination performed by colorimetric assay (Sigma). […] 15-20 μg total RNA was utilized in Northern blot analysis using rat 24(OH)ase probe; GAPDH probe was used to normalize for RNA loading, as described previously (Id). Quantitation was by PhosphorImager analysis.

The next data set concerns 24(OH)ase. Nature of the data set: In vivo gene regulation: kidney 24(OH)ase RNA induction (Northern blot). On the set-up: species or system mouse (Balb/c mice). Particulars: 3-day treatment; for Relative 24(OH)ase activity: oral gavage, vehicle 1, corrected with GAPDH. The method, then:
as §4

The mark [7] stands for this setting: cotransfected VDRE-luciferase reporter and human VDR in Hep G2 cells, read-out: CTF EC50.

In the case of `CCC(CC)(c1ccc(OCC(=O)C(C)(C)C)c(C)c1)c1ccc(OCC2CO2)c(C)c1` (stereo not shown) [Compound 9, 3-[3-methyl-4-(2,3-epoxypropoxy)phenyl]-3-[3-methyl-4-(3,3-dimethyl-2-oxobutoxy)phenyl]pentane], the IC50 on serum DBP was over 10 µM. Further, the EC50 stood at 100 nM in data set [1]; 150 nM in data set [2]; 200 nM in [3]; 150 nM with HL60 cells; 60 nM on human VDR [5] (setting [7]). Moreover, the Ki at human VDR [4] was over 10 µM.

On to `C=C1/C(=C\C=C2/CCC[C@]3(C)[C@@H]([C@H](C)CCCC(C)(C)O)CC[C@@H]23)C[C@@H](O)C[C@@H]1O` [1,25(OH)2 D3, 1,25-dihydroxyvitamin D3, reference compound], for which the EC50 in data set [1] was 2 nM; in data set [2], 8 to 10 nM; in data set [3] it was 10 to 30 nM; with HL60 cells, 8 to 10 nM. Also, the “Serum Ca2+” value in data set [6] (3-day treatment, 15 μg/kg, statistically different than vehicle (p < 0.01)) is given as over 15 mg/dL; in [6] (5-day treatment, 2 μg/kg), 9.7 ± 0.6 mg/dL; in data set [6] (5-day treatment, 5 μg/kg, statistically different than vehicle (p < 0.01)) it was 10.5 ± 0.6 mg/dL.

For the compound `CCC(CC)(c1ccc(OCC(=O)C(C)(C)C)c(C)c1)c1ccc(OCC(=O)C(C)(C)C)c(C)c1` [Compound 7, 3,3-bis[3-methyl-4-(3,3-dimethyl-2-oxobutoxy)phenyl]pentane], the concentration for half-maximal inhibition (IC50) on serum DBP is over 10 µM. The EC50 in data set [1] was found to be 300 nM; in data set [2] it was 800 nM; in [3], 500 nM; in the data set with HL60 cells, 800 nM; at human VDR [5] (setting [7]) it was 600 nM. In addition, the “Serum Ca2+” value in data set [6] (3-day treatment, 100 μg/kg) was found to be 9.6 ± 0.5 mg/dL; in [6] (3-day treatment, 500 μg/kg, statistically different than vehicle (p < 0.01)) it was 11.5 ± 0.9 mg/dL. The compound further displayed a Ki on human VDR [4] of over 10 µM. For the same compound, the “Ratio 24(OH)ase/Ca2+” value in the data set with 24(OH)ase (100 μg/kg) came out at 0.63; with 24(OH)ase (500 μg/kg), 0.52. The “Ratio 24(OH)ase/Ca2+ increase” value in the data set with 24(OH)ase (100 μg/kg) came to 5.17; with 24(OH)ase (500 μg/kg), 1.88. Besides, the “Relative 24(OH)ase activity” value in the data set on 24(OH)ase (100 μg/kg) and with 24(OH)ase (500 μg/kg) was 6.0 in each case.

On serum DBP, `CCC(CC)(c1ccc(OCC(=O)C(C)(C)C)c(C)c1)c1ccc(OCC(O)C(C)(C)C)c(C)c1` (stereo not shown) [Compound 11, 3-[3-methyl-4-(2-hydroxy-3,3-dimethylbutoxy)phenyl]-3-[3-methyl-4-(3,3-dimethyl-2-oxobutoxy)phenyl]pentane] came in with an IC50 of over 10 µM. Also, the EC50 stood at 500 nM in [1], 500 nM in data set [2], 400 nM in the data set on HL60 cells and 400 nM on human VDR [5]. On human VDR [4], this compound showed a Ki of over 10 µM.

As for `CCC(CC)(c1ccc(OCC(O)CO)c(C)c1)c1ccc(OCC(O)C(C)(C)C)c(C)c1` (stereo not shown) [Compound 13, 3-[3-methyl-4-(2,3-dihydroxypropoxy)phenyl]-3-[3-methyl-4-(2-hydroxy-3,3-dimethylbutoxy)phenyl]pentane], the IC50 at serum DBP is over 10 µM. For the same compound, the concentration giving a half-maximal response (EC50) in [1] is 20 nM; in data set [2] it was 30 to 50 nM; in data set [3] it was 30 to 50 nM; with HL60 cells, 30 to 50 nM.
